# Measured values published in US10512652B2, “Use of cymanquine compounds as antimalarial agents” (priority 2015, dated 2019).
# pEC50: −log10 of the molar value.
# How the values were obtained:
# P. falciparum strain Dd2 = assay: [3H]-hypoxanthine incorporation growth inhibition, strain Dd2; type: cell-based, Plasmodium falciparum; details: multidrug resistant strain Dd2; 24 h treatment + 24 h [3H]-hypoxanthine; average of triplicate
# Method: (§1) P. falciparum strains were cultured under standard conditions in RPMI1640 medium supplemented with 0.5% Albumax in 90% N2, 5% 02 and 5% CO2. A modified version of the [^3H]-hypoxanthine incorporation method was employed for assessing growth inhibition by the inhibitor compounds. Briefly, P. falciparum strain Dd2 or strain D10ydhod (this strain express the Saccharomyces cerevisiae dihydroorotate dehydrogenase enzyme which renders mitochondrial electron transport nonessential in the parasite) parasites were seeded at 2% parasitemia in 96-well plates and treated with varying concentration of the inhibitors as well as the solvent (DMSO) for 24 h. [^3H]-Hypoxanthine was added to the cultures and incubation was continued for an additional 24 h. Incorporation of [^3H]-hypoxanthine by the parasites was determined by liquid scintillation. Growth inhibition was assessed as decrease in [^3H]-hypoxanthine incorporation in treated parasites relative to the control parasites treated with the solvent. The dose-response data were analyzed using nonlinear regression analysis (Prism GraphPad), and the EC50 was derived using an inhibitory sigmoid maximum effect (Emax) model. Each assay is completed in triplicate and the average EC50 was calculated. […]
# [1] = system: P. falciparum strain D10ydhod; assay: [3H]-hypoxanthine incorporation growth inhibition, strain D10ydhod; type: cell-based, Plasmodium falciparum; details: strain D10ydhod (expresses S. cerevisiae dihydroorotate dehydrogenase)
# Method: as §1
# [2] = Cyclic voltammetry, anodic oxidation; type: physicochemical; details: irreversible, anodic peak potential, dichloromethane/0.05 M [NBu4][B(C6F5)4]
# Method: Electrochemical studies were carried out. The electrolyte solution used for these studies, namely dichloromethane with 0.05 M [NBu4][B(C6F5)4] as the supporting electrolyte, is known to provide an optimum medium for the electrochemical oxidation of compounds containing the MnCp(CO)3 (Cp=η^5-C5H5) backbone (Laws et al., J. Am. Chem. Soc. 2008, 130, 9859). The potentials given here are referred to the ferrocene/ferrocenium reference couple. The experiments were carried out in a controlled atmosphere which minimizes exposure to oxygen and water. We refer to two types of standard electrochemical techniques that are commonly described in books on electrochemistry: cyclic voltammetry and bulk electrolysis (Bard, A. J.; Faulkner, L. R. Electrochemical Methods, John Wiley & Sons, New York, 2001, second edition) The former is useful for the analytical and gross mechanistic aspects of the electron-transfer properties of a compound, whereas the latter is most often employed for the electro-synthetic function of making isolable quantities of electrochemical oxidation or reduction products.
# Anodic oxidation of the three compounds was investigated. […]
# Table of potentials (vs ferrocene/ferrocenium (FcH)) measured by cyclic voltammetry for oxidation of compounds 3, 4, and 5 in dichloromethane/0.05 M [NBu4][B(C6F5)4]. […]
substance,measurement,setting,value
cymanquine [Compound 3],pEC50,P. falciparum strain Dd2,~7.97
same,potency against strain D10ydhod compared with strain Dd2,[1],Equivalent potency
same,Ep(1),[2]; first oxidation,0.82 V vs FcH
same,Ep(2),[2]; second oxidation,1.25 V vs FcH
